{"source": "patent US20190247376A1", "about": "“NICOTINIC ACETYLCHOLINE RECEPTOR AGONIST ATTENUATES ILC2-DEPENDENT AIRWAY HYPERREACTIVITY” (University of Southern California, priority 2016, published 2019)", "tested_on": "human ILC2s", "assay": "In vitro culture of human ILC2s, IL-5 and IL-13 production", "assay_type": "cell-based", "details": "agonist 10 μg mL−1; rh-IL-2, rh-IL-7, rh-IL-33; 24h", "protocol": "FIGS. 7A-7E: α7nAChR agonist prevents human ILC2s mediated AHR and allergic. (FIG. 7A) Human ILC2s were purified from PBMCs via FACS and cultured (10^4 cells per mL) in the presence of recombinant human IL-33 (20 ng mL^−1), IL-2 (10 ng mL^−1), and IL-7 (20 ng mL^−1), with or without α7nAChR agonist for 24h. In the right panel, data are presented as means of four individual donors. (FIG. 7B) Human peripheral-blood mononuclear cells were isolated via FACS and cultured in the presence or absence of rh-IL-2 (10 ng mL^−1) and rh-IL-7 (20 ng mL^−1) for 48 hours, then adoptively transferred into Rag2^−/− GC^−/− mice that were intranasally challenged with rm-IL-33 or PBS, with or without α7nAChR agonist (125 μg) on days 1-3. […]\nFor human peripheral ILC2s, peripheral blood mononuclear cells (PBMCs) were first isolated from human fresh blood by diluting the blood 1:1 in PBS, adding to SepMate™-50 separation tubes (STEMCELL Technologies Inc, Vancouver, Canada) prefilled with 15-mL Lymphoprep™ each (Axis-Shield, Oslo, Norway), and centrifuging at 1200 g for 15 minutes. […] On day 4, lung function was measured and BAL was performed and analyzed.\nMurine ILC2s were isolated from BALB/cByJ mice to >95% purity using the FACSARIA III cell sorter. […] Levels of cytokines were measured by ELISA (eBioscience), according to the manufacturer's instructions."}
{"smiles": "COc1ccc(/C=C2\\CCCN=C2c2cccnc2)c(OC)c1", "note": "[GTS-21, 3-[(3E)-3-[(2,4-dimethoxyphenyl)methylidene]-5,6-dihydro-4H-pyridin-2-yl]pyridine]", "values": [{"measurement": "IL-5 production by human ILC2s", "value": "decreasing"}, {"measurement": "IL-13 production by human ILC2s", "value": "decreasing"}]}
